Assay results as given in the NIST ThermoML archive (doi:10.1021/je0601208).

How the values were obtained:
[1] = xn = mol fraction of the nth substance listed
[2] = refractive index (Na D-line) (dimensionless); xn = mol fraction of the nth substance listed; conditions: 100.5 kPa, Liquid, Standard Abbe refractometry

CCCCCC(=O)OCC [ethyl hexanoate] + CCO
Conditions | refractive index, 288.15 K | refractive index, 298.15 K | refractive index, 308.15 K | refractive index, 318.15 K | surface tension liquid-gas, 288.15 K [mN/m] | surface tension liquid-gas, 298.15 K [mN/m] | surface tension liquid-gas, 308.15 K [mN/m] | surface tension liquid-gas, 318.15 K [mN/m]
[1], x1 = 0.05 | – | – | – | – | 23.4 | 22.7 | 21.8 | 20.9
[1], x1 = 0.1 | – | – | – | – | 23.8 | 23 | 22.1 | 21.2
[1], x1 = 0.15 | – | – | – | – | 24.1 | 23.2 | 22.4 | 21.5
[1], x1 = 0.2 | – | – | – | – | 24.3 | 23.5 | 22.6 | 21.7
[1], x1 = 0.25 | – | – | – | – | 24.5 | 23.7 | 22.8 | 21.9
[1], x1 = 0.3 | – | – | – | – | 24.7 | 23.9 | 23 | 22
[1], x1 = 0.35 | – | – | – | – | 24.9 | 24 | 23.1 | 22.2
[1], x1 = 0.4 | – | – | – | – | 25.1 | 24.2 | 23.3 | 22.3
[1], x1 = 0.45 | – | – | – | – | 25.2 | 24.3 | 23.4 | 22.5
[1], x1 = 0.5 | – | – | – | – | 25.4 | 24.4 | 23.5 | 22.6
[1], x1 = 0.55 | – | – | – | – | 25.5 | 24.5 | 23.6 | 22.7
[1], x1 = 0.6 | – | – | – | – | 25.6 | 24.6 | 23.7 | 22.8
[1], x1 = 0.65 | – | – | – | – | 25.7 | 24.7 | 23.8 | 22.9
[1], x1 = 0.7 | – | – | – | – | 25.8 | 24.9 | 23.9 | 23
[1], x1 = 0.75 | – | – | – | – | 25.9 | 25 | 24 | 23.1
[1], x1 = 0.8 | – | – | – | – | 26 | 25.1 | 24.1 | 23.2
[1], x1 = 0.85 | – | – | – | – | 26.1 | 25.1 | 24.2 | 23.3
[1], x1 = 0.9 | – | – | – | – | 26.2 | 25.2 | 24.3 | 23.4
[1], x1 = 0.95 | – | – | – | – | 26.3 | 25.3 | 24.4 | 23.5
[1], x1 = 1 | – | – | – | – | 26.4 | 25.4 | 24.5 | 23.6
[2], x1 = 0.05 | 1.36942 | 1.36535 | 1.36109 | 1.35703 | – | – | – | –
[2], x1 = 0.1 | 1.37451 | 1.37034 | 1.36602 | 1.36185 | – | – | – | –
[2], x1 = 0.15 | 1.37883 | 1.37461 | 1.37024 | 1.36601 | – | – | – | –
[2], x1 = 0.2 | 1.38253 | 1.37826 | 1.37388 | 1.3696 | – | – | – | –
[2], x1 = 0.25 | 1.38577 | 1.38146 | 1.37706 | 1.37274 | – | – | – | –
[2], x1 = 0.3 | 1.38864 | 1.38429 | 1.37986 | 1.3755 | – | – | – | –
[2], x1 = 0.35 | 1.39119 | 1.38681 | 1.38236 | 1.37795 | – | – | – | –
[2], x1 = 0.4 | 1.39347 | 1.38907 | 1.3846 | 1.38016 | – | – | – | –
[2], x1 = 0.45 | 1.39553 | 1.39111 | 1.38663 | 1.38216 | – | – | – | –
[2], x1 = 0.5 | 1.3974 | 1.39296 | 1.38847 | 1.38398 | – | – | – | –
[2], x1 = 0.55 | 1.3991 | 1.39465 | 1.39016 | 1.38564 | – | – | – | –
[2], x1 = 0.6 | 1.40066 | 1.3962 | 1.3917 | 1.38716 | – | – | – | –
[2], x1 = 0.65 | 1.4021 | 1.39763 | 1.39312 | 1.38857 | – | – | – | –
[2], x1 = 0.7 | 1.40343 | 1.39895 | 1.39444 | 1.38988 | – | – | – | –
[2], x1 = 0.75 | 1.40466 | 1.40019 | 1.39568 | 1.39111 | – | – | – | –
[2], x1 = 0.8 | 1.40579 | 1.40133 | 1.39682 | 1.39225 | – | – | – | –
[2], x1 = 0.85 | 1.40684 | 1.40238 | 1.39787 | 1.3933 | – | – | – | –
[2], x1 = 0.9 | 1.4078 | 1.40334 | 1.39882 | 1.39426 | – | – | – | –
[2], x1 = 0.95 | 1.40868 | 1.40422 | 1.39972 | 1.39515 | – | – | – | –
[2], x1 = 1 | 1.4095 | 1.40504 | 1.40055 | 1.39597 | – | – | – | –
